Laboratory results from ChEMBL document CHEMBL1154793, “The lecanindoles, nonsteroidal progestins from the terrestrial fungus Verticillium lecanii 6144” (J Nat Prod, 2009).

Key:
[1] = biological target: T1, Glucocorticoid receptor (Homo sapiens, UniProt P04150); experiment: Agonist activity at glucocorticoid receptor ligand binding domain expressed in african green monkey COS7 cells co-transfected with Gal4-LBD up to 10 uM by luciferase reporter gene assay; type: cell-based; conditions: cos-7
T1 sequence (P04150 whole entry): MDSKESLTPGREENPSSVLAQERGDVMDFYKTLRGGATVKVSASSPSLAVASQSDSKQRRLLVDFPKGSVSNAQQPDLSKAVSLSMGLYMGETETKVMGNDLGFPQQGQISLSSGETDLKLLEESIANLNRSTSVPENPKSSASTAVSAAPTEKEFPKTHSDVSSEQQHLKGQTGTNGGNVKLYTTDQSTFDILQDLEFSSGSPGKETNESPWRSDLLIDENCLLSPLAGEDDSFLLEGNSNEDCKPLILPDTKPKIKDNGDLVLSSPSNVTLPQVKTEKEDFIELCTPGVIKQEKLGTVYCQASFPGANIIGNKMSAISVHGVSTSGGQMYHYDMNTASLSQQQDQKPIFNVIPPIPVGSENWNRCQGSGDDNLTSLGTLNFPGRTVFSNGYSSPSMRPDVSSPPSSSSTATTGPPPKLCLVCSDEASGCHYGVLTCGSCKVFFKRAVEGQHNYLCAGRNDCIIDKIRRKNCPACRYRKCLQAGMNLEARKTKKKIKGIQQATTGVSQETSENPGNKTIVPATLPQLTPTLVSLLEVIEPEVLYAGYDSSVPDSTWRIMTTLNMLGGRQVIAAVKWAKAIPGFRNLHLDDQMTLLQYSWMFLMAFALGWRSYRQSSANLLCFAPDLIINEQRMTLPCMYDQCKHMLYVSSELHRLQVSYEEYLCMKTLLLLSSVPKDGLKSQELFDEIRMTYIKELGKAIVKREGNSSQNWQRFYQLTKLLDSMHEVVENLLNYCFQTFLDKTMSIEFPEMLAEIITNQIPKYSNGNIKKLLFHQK

[2] = biological target: T2, Estrogen receptor (Homo sapiens) (UniProt P03372); experiment: Agonist activity at estrogen receptor alpha ligand binding domain expressed in african green monkey COS7 cells co-transfected with Gal4-LBD by luciferase reporter gene assay relative to control; type: cell-based; conditions: COS-7
T2 sequence (whole entry): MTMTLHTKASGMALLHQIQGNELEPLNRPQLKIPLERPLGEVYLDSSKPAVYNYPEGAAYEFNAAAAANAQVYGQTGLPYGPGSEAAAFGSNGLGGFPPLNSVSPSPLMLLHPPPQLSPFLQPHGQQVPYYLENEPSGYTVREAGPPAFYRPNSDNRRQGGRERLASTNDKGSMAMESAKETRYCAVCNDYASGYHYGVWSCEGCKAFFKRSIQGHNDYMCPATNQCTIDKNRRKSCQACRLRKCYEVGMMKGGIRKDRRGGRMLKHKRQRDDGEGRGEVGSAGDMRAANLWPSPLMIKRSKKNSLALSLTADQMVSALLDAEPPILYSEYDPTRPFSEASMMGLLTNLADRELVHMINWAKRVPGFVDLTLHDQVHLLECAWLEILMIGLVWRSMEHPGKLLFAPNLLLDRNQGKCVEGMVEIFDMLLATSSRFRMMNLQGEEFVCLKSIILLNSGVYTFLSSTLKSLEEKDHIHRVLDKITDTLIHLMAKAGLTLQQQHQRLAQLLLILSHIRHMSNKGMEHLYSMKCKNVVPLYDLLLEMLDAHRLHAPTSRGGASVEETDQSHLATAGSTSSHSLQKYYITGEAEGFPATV

[3] = biological target: Estrogen receptor beta (Homo sapiens, UniProt Q92731); experiment: Agonist activity at estrogen receptor beta ligand binding domain expressed in african green monkey COS7 cells co-transfected with Gal4-LBD up to 10 uM by luciferase reporter gene assay; type: cell-based; conditions: cos-7
[4] = biological target: T3, Progesterone receptor (Homo sapiens, UniProt P06401)
T3 sequence (P06401 whole entry): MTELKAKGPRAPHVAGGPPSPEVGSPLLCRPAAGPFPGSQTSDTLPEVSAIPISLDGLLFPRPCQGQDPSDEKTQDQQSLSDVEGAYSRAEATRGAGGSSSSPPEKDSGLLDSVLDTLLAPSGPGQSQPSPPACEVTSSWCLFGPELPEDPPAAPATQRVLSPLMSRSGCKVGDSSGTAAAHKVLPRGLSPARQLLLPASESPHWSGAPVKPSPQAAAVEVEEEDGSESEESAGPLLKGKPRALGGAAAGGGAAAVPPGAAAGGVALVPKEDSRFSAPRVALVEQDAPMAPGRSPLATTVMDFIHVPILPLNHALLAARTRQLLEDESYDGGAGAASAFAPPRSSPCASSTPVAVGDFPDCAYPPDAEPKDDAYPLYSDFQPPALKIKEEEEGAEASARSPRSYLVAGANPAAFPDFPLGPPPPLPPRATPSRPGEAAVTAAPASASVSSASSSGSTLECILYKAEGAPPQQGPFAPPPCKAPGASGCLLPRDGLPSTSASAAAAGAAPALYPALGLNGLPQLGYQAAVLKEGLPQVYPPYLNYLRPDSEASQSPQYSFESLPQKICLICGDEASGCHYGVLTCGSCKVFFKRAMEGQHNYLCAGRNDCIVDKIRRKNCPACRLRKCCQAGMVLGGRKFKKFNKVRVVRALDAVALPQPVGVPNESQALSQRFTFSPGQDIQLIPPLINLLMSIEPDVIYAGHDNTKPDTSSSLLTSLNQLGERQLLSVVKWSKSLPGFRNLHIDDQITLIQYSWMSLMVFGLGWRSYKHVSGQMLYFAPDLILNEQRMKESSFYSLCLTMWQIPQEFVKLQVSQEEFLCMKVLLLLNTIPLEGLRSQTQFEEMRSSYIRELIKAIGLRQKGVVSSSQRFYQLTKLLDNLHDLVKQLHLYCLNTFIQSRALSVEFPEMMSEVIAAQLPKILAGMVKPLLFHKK

Chain of Estrogen receptor beta (Q92731 whole entry, the tested form may be a part): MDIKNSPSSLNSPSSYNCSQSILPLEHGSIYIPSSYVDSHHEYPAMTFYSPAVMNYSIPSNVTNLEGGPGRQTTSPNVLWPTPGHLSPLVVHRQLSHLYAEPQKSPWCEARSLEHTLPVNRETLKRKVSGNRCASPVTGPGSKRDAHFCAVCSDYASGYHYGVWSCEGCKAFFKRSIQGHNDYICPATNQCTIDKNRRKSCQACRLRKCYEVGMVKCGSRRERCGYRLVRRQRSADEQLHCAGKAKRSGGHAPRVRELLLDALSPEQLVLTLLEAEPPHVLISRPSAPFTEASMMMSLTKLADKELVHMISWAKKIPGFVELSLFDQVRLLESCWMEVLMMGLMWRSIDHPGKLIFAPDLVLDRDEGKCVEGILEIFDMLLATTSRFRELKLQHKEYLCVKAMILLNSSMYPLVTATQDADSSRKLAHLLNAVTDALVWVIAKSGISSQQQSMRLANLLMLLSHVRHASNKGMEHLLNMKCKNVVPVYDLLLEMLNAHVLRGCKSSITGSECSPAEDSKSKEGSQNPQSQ

Row | SMILES | EC50 [1] | Activity [2] [%] | EC50 [3] | EC50 [4] [nM]
1 | CC1(C)C(=O)CC[C@]2(C)[C@@]3(C)c4[nH]c5ccccc5c4C[C@@H]3CC[C@@]12O [LECANINDOLE B] | Not Active | 8 | Not Active | 0.3
2 | CC1(C)[C@H](O)CC[C@]2(C)[C@@]3(C)c4[nH]c5ccccc5c4C[C@@H]3CC[C@@]12O [LECANINDOLE D] | Not Active | 35 | Not Active | 1.1
